In EPA's ToxValDB 9.5 (doi:10.2903/j.efsa.2010.1722):
≈ marks a conversion by molar mass, not a printed value.

Key:
Aphidius matricariae [1] = test: LR50; higher = less toxic; details: not reported; mortality
Lepomis macrochirus = details: acute; duration: 96 hours; mortality
Apis mellifera = details: acute, mortality
Anas platyrhynchos = details: oral, mortality
Daphnia magna = details: chronic/long-term; duration: 21 days; reproduction
Aphidius matricariae [2] = details: not reported; reproduction
Canidae = details: oral, Dog Other
Mus musculus = details: acute; oral; mortality
Tagia sp. = details: acute; duration: 14 days; mortality
Oncorhynchus mykiss = details: chronic/long-term; duration: 28 days; growth
Bibionidae = details: chronic/long-term; duration: 21 days; other
Colinus virginianus = details: reproduction developmental

C[C@H]1[C@H](c2ccc(Cl)cc2)SC(=O)N1C(=O)NC1CCCCC1 [Hexythiazox]
LR50 (Aphidius matricariae [1]): > 158 g/ha | LC50 (Lepomis macrochirus): 3.2 µg/mL (≈ 9.07 µM) | LD50 (Apis mellifera; dermal): > 200 µg/piece | LD50 (Apis mellifera; duration: 48 hours, oral, unspecified): > 112 µg/piece | LD50 (Anas platyrhynchos; acute, unspecified): > 2000 mg/kg | LC50 (Anas platyrhynchos; short-term, feed): > 523 mg/kg-day | NOEC (Daphnia magna): 0.0061 mg/L | LEL (Aphidius matricariae [2]): 158 g/ha | LD50 (Canidae; acute, mortality): > 5000 mg/kg | NOAEL (Canidae; chronic, duration: 1 years, histopathology: nonneoplastic): 2.87 mg/kg-day | LD50 (Mus musculus): > 5000 mg/kg | LC50 (Tagia sp.): > 105 mg/kg | NOEC (Oncorhynchus mykiss): 0.04 mg/L | LD50 (Rattus norvegicus; acute, oral, mortality): > 5000 mg/kg | NOEL (Rattus norvegicus; chronic): 23.5 mg/kg-day | NOAEL (Rattus norvegicus; chronic, duration: 2 years, clinical chemistry): 3.2 mg/kg-day | NOEC (Bibionidae): 1.7 mg/L | NOEC (Colinus virginianus): 100 mg/kg-day
